According to patent publication US20030144346A1, “Methods and compositions for regulation of 5-alpha reductase activity” (priority 1997, published 2003):

How the values were obtained:
[1] = biological target: T1, type 2 human 5α-reductase (HRED2) (Homo sapiens, UniProt P31213); assay: Cell free assay of 5α-reductase, microsomes of rat 1A cells expressing type 2 isoenzyme (HRED2); type: biochemical; set-up: expressed in transfected cells; host or cells: rat 1A cells infected with pMV7 retrovirus; microsomes; conditions: for HRED2 % Inhibition @ 100 μM: Table 5;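 for all read-outs here: labeled testosterone and its product dihydrotestosterone measured in microsomal reaction extracts via thin layer chromatography plus radioanalytic scanning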
T1 sequence (P31213 1-254): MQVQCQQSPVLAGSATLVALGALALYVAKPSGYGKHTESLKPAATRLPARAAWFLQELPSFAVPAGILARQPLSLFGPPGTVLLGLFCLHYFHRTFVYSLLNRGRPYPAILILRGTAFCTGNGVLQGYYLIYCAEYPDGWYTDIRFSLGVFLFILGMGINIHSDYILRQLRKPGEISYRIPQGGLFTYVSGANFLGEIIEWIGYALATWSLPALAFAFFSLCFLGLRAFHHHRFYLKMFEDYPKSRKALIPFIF

[2] = biological target: T2, type 1 human 5α-reductase (HRED1) (Homo sapiens, UniProt P18405); assay: Cell free assay of 5α-reductase, microsomes of rat 1A cells expressing type 1 isoenzyme (HRED1); type: biochemical; set-up: expressed in transfected cells; host or cells: rat 1A cells infected with pMV7 retrovirus; microsomes; conditions: for HRED1 % Inhibition @ 100 μM: Table 5; for inhibitory activity against type 1 isoenzyme, in words: cell-free assay;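 for all read-outs here: microsomes from rat 1A cells expressing human type 1 5α-reductase, conversion of radiolabeled testosterone to dihydrotestosterone quantified by thin layer chromatography with radioanalytic scanning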
T2 sequence (P18405 1-259): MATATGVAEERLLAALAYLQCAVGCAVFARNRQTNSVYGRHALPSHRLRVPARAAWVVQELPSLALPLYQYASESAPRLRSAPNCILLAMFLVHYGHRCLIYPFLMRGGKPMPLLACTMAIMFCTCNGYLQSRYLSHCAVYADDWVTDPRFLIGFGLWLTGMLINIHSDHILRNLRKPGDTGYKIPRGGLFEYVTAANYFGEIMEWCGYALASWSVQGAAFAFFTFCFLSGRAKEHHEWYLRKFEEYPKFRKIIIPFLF

[3] = biological target: T2, type 1 human 5α-reductase (HRED1); assay: Whole cell assay of 5α-reductase, type 1 isoenzyme; type: cell-based; set-up: expressed in transfected cells; host or cells: rat 1A cells infected with pMV7 retrovirus;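 note: intact rat 1A cells engineered to express the human type 1 5α-reductase isozyme serve as the enzyme source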
[4] = biological target: T1, type 2 human 5α-reductase (HRED2); assay: Whole cell assay of 5α-reductase, type 2 isoenzyme; type: cell-based; set-up: expressed in transfected cells; host or cells: rat 1A cells infected with pMV7 retrovirus; conditions: for inhibition at 100 µM / HRED2 % Inhibition @ 100 μM: Table 7; for IC50: Table 7, read-out: HCRED2 IC50;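 for all read-outs here: intact rat 1A cells genetically modified to carry human type 2 5α-reductase served as the enzyme source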
[5] = cell free assay, Table 5 epigallocatechin derivatives, read-out: HRED2 IC50
[6] = cell free assay, Table 5 epigallocatechin derivatives, read-out: HRED1 IC50
[7] = whole cell assay, Table 7, read-out: HCRED1 IC50
[8] = 100 uM, cell free assay, Table 2
[9] = cell free assay, Table 2 catechols, read-out: HRED2 IC50
[10] = cell free assay, Table 2 catechols, read-out: HRED1 IC50
[11] = 100 uM, cell free assay, Table 2, read-out: HRED2 % Inhibition @ 100 uM
[12] = 100 uM, cell free assay, Table 2, read-out: HRED1 % Inhibition @ 100 uM

SMILES | IC50 [4] [µM] | HRED2 % Inhibition @ 100 μM ([1]; 100 μM, cell free assay) [%] | IC50 [1, 5] [µM] | HRED1 % Inhibition @ 100 μM ([2]; cell free assay) [%] | IC50 [2, 6] [µM] | HRED1 % Inhibition @ 100 μM ([3]; whole cell assay, Table 7) [%] | IC50 [3, 7] [µM] | HRED2 % Inhibition @ 100 μM [4] [%] | other results
Cc1cc2c(C(C)C)c(O)c(O)c(C=O)c2c(O)c1-c1c(C)cc2c(C(C)C)c(O)c(O)c(C=O)c2c1O [Gossypol] | 6 |  |  |  |  |  |  |  | IC50 [1]: 21 µM; inhibition at 100 µM ([1]; read-out: HRED2 % Inhibition @ 100 uM): 99%; IC50 [2]: 7 µM; inhibition at 100 µM ([2]; read-out: HRED1 % Inhibition @ 100 uM): 99%; IC50 [3]: 7 µM; inhibition at 100 µM ([3]; whole cell assay, Table 7): 100%; inhibitory activity in the whole cell assay, type 1 isoenzyme, in words ([3]; whole cell assay): active; inhibition at 100 µM [4]: 99%
COc1cc(C(=O)OC2Cc3c(O)cc(O)cc3OC2c2cc(O)c(O)c(O)c2)cc(OC)c1OC (stereo not shown) [HZIV 63] | > 100 | 20 | > 100 | 94 | 311 | 12 | > 100 | 7 | 
Cc1c(O)cc(C(=O)OC2Cc3c(O)cc(O)cc3OC2c2cc(O)c(O)c(O)c2)cc1O (stereo not shown) [HZIV 68] | > 100 | 51 | 99 | 93 | 29 | 40 | > 100 | 34 | 
COc1cc(C(=O)OC2Cc3c(O)cc(O)cc3OC2c2cc(O)c(O)c(O)c2)cc(OC)c1O (stereo not shown) [HZIV 75] | 62 | 21 | > 100 | 97 | 29 | 83 | 43 | 72 | 
COc1cc(CCNC(=O)C=Cc2ccc(O)c(O)c2)ccc1O [HZIV 90] | > 100 |  |  |  |  | 34 | > 100 | 14 | HRED2 % Inhibition @ 100 uM [1, 8]: 13%; IC50 [1, 9]: > 100 µM; HRED1 % Inhibition @ 100 uM [2, 8]: 23%; IC50 [2, 10]: > 100 µM
CN(C)c1ccc(C(=O)OC2Cc3c(O)cc(O)cc3OC2c2cc(O)c(O)c(O)c2)cc1 (stereo not shown) [HZIV 92] | 80 | 45 | > 100 | 98 | 23 | 94 | 64 | 62 | 
O=C(OC1Cc2c(O)cc(O)cc2OC1c1cc(O)c(O)c(O)c1)c1ccncc1 (stereo not shown) [HZIV 107] | > 100 | 39 | > 100 | 52 | 98 | 23 | > 100 | 2 | 
O=C(OC1Cc2c(O)cc(O)cc2OC1c1cc(O)c(O)c(O)c1)c1ccc2ccccc2c1 (stereo not shown) [HZIV 120] | 57 | 97 | 66 | 99 | 23 | 97 | 49 | 96 | 
CCCCCC=CCC=CCC=CCCCCC(=O)OC1Cc2c(O)cc(O)cc2OC1c1cc(O)c(O)c(O)c1 (stereo not shown) [HZIV 142] | 14 | 93 | 63 | 97 | 25 | 99 | 8 | 98 | 
O=C(OC1Cc2c(O)cc(O)cc2OC1c1cc(O)c(O)c(O)c1)C1CCCCC1 (stereo not shown) [HZIV 144] | > 100 | 38 | > 100 | 88 | 49 | 12 | > 100 | 7 | 
CC(=O)OC1Cc2c(O)cc(O)cc2OC1c1cc(O)c(O)c(O)c1 (stereo not shown) [HZIV 145] | > 100 | 8 | > 100 | 35 | > 100 | 8 | > 100 | 9 | 
CCCCCCCCCCCCCCCCCC(=O)OC1Cc2c(O)cc(O)cc2OC1c1cc(O)c(O)c(O)c1 (stereo not shown) [HZIV 148] | 74 | 0 | > 100 | 31 | > 100 | 90 | 42 | 81 | 
CCCCC=CCCCCCCCC(=O)OC1Cc2c(O)cc(O)cc2OC1c1cc(O)c(O)c(O)c1 (stereo not shown) [HZIV 160] | 8 | 96 | 76 | 99 | 29 | 99 | 7 | 98 | inhibitory activity against type 1 isoenzyme, in words [2]: effective; inhibitory activity in the whole cell assay, type 1 isoenzyme, in words ([3]; whole cell assay): effective
CCCCCC(=O)OC1Cc2c(O)cc(O)cc2OC1c1cc(O)c(O)c(O)c1 (stereo not shown) [HZIV 169] | > 100 | 39 | > 100 | 90 | 47 | 10 | > 100 | 0 | 
COc1cc(C(=O)C=Cc2ccc(N(C)C)cc2)cc(OC)c1OC [HZIV-82] | > 100 |  |  |  |  | 79 | 3 | 15 | HRED2 % Inhibition @ 100 uM [1, 8]: 0%; IC50 [1, 9]: > 100 µM; HRED1 % Inhibition @ 100 uM [2, 8]: 43%; IC50 [2, 10]: > 100 µM; inhibitory activity against type 1 isoenzyme, in words [2]: little activity; inhibitory activity in the whole cell assay, type 1 isoenzyme, in words ([3]; whole cell assay): very active
O=c1c(O)c(-c2ccc(O)cc2)oc2cc(O)cc(O)c12 [Kaempferol] | 20 |  |  |  |  |  | 79 |  | inhibition at 100 µM ([1]; 100 uM, cell free assay, Table 1, read-out: HRED2 % Inhibition @ 100 uM): 62%; IC50 ([1]; cell free assay, Table 1 flavanoids, read-out: HRED2 IC50): 12 µM; inhibition at 100 µM ([2]; 100 uM, cell free assay, Table 1, read-out: HRED1 % Inhibition @ 100 uM): 22%; IC50 ([2]; cell free assay, Table 1 flavanoids, read-out: HRED1 IC50): > 100 µM; inhibition at 100 µM ([3]; whole cell assay, Table 7): 60%; inhibitory activity in the whole cell assay, type 2 isoenzyme, in words [4]: significant inhibitory activity; inhibition at 100 µM [4]: 85%
CCCCC/C=C\C/C=C\CCCCCCCC(=O)O [Linoleic Acid, Linoleic Acid C18:2 CIS 9,12] | 25 |  |  |  |  |  | 40 |  | IC50 ([1]; cell free assay, Table 6 fatty acids, read-out: HRED2 IC50): 19 µM; IC50 ([2]; cell free assay, Table 6 fatty acids, read-out: HRED1 IC50): 9 µM
CC1=CC(=O)c2ccccc2C1=O [Menadione] | 79 |  |  |  |  |  |  |  | inhibition at 100 µM ([1]; 100 μM, cell free assay, Table 4, read-out: HRED2 % Inhibition @ 100 μM): 81%; IC50 ([1]; cell free assay, Table 4 quinones, read-out: HRED2 IC50): 5 µM; inhibitory activity against type 2 isoenzyme, in words ([1]; cell-free assay): potent cell-free inhibitors; IC50 [2]: 6 µM; inhibitory activity against type 1 isoenzyme, in words [2]: potent cell-free inhibitors; inhibition at 100 µM ([2]; read-out: HRED1 % Inhibition @ 100 μM): 77%; inhibition at 100 µM ([3]; whole cell assay, Table 7): 82%; IC50 ([3]; HCRED1 IC50, whole cell assay, Table 7): 51 µM; inhibitory activity in the whole cell assay, type 1 isoenzyme, in words ([3]; whole cell assay): moderate activity; inhibition at 100 µM [4]: 62%
COC(=O)c1cc(O)c(O)c(O)c1 [Methylgallate] | > 100 |  |  |  |  |  | > 100 |  | inhibition at 100 µM [1, 11]: 3%; IC50 [1, 9]: > 100 µM; inhibition at 100 µM [2, 12]: 5%; IC50 [2, 10]: > 100 µM; inhibition at 100 µM ([3]; whole cell assay, Table 7): 0%; inhibition at 100 µM [4]: 0%
CCCCCCCCOC(=O)c1cc(O)c(O)c(O)c1 [Octyl Gallate] | 18 |  |  |  |  |  | 7 |  | inhibition at 100 µM [1, 11]: 90%; IC50 [1, 9]: 58 µM; inhibition at 100 µM [2, 12]: 99%; IC50 [2, 10]: 27 µM; inhibition at 100 µM ([3]; whole cell assay, Table 7): 99%; inhibitory activity in the whole cell assay, type 1 isoenzyme, in words ([3]; whole cell assay): active; inhibition at 100 µM [4]: 94%
